Assay results taken from PubChem BioAssay AID449762 (Southern Research Specialized Biocontainment Screening …, 2010).
Results filed as inconclusive are left out.

tested on: M. tuberculosis H37Rv growth inhibition, 7H9 media; assay: M. tuberculosis growth inhibition, HTS (AID 449762); conditions: measured here: IC90 growth inhibition;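 also: bacterial growth assessed after seven days of incubation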

First: CCN(CC)CCCNc1nc2cc(OC)c(OC)cc2c2nc(-c3ccccc3)nn12
Second: CCOc1ccc2nc(/N=C/c3nc(-c4ccccc4)oc3O)sc2c1
The IC90 of the first is lower: 6 µM for the first, greater than 100 µM for the second.

`O=C(Nc1cccc(-c2ccc(N3CCCCC3)nn2)c1)c1ccc(Br)o1` and `COc1ccc(-c2c[n+]3c4n2CCCCC4=C(c2ccccc2)C3)cc1` are within 1.5-fold of each other in IC90: 42.4 µM for the first, 43.7 µM for the second.

Compared with `Oc1ccccc1NCC(O)Cn1ccc2ccccc21` (centres undefined), `Cc1ccccc1C(=O)Nc1ccc(N(C)C)c2ccccc12` is higher in IC90: 8.32 µM for the first, greater than 100 µM for the second.

First: COc1ccccc1/C=N/NC(=O)NC12CC3CC(CC(C3)C1)C2
Second: COc1ccccc1NC(=O)CN1CCN(CC(=O)Nc2ccc3c(c2)OCO3)CC1
The IC90 of the first is higher: greater than 100 µM for the first, 33.6 µM for the second.

First: COc1cc2c(cc1OC)C(c1cc(Br)ccc1F)N(C(=O)CCl)CC2 (centres undefined)
Second: COc1cc(OC)nc(Oc2ccccc2C(=O)Oc2ccc(Cl)cc2)n1
The IC90 of the first is lower: 5.69 µM for the first, greater than 100 µM for the second.

Going from `CCC1=C(OC(=O)N(CC)CC)N2C(=O)OC(=NCCc3c[nH]c4ccccc34)[C@]2(Cc2ccccc2)[C@H]2C1=CC[C@H]1C(=O)NC(=O)[C@H]12` to `CC1(C)CC(NC(=O)c2ccc(Cl)c(S(=O)(=O)N(Cc3ccccc3)c3ccccc3)c2)CC(C)(C)N1`, the IC90 falls from 44.8 µM to 27.9 µM (1.6-fold).

Going from `CCc1ccc2nc(N3C(=O)C(O)=C(C(=O)c4ccco4)C3c3cccs3)sc2c1` (centres undefined) to `CCOC(=O)c1cc2cc3ccccc3cc2oc1=O`, the IC90 rises from 92.3 µM to greater than 100 µM.

`C=CC[N@@+]12CC[C@]34c5ccccc5N5/C=C6\C7N(/C=C(\C53)[C@@H](C[C@@H]41)/C(=C/CO)C2)c1ccccc1[C@@]71CC[N@@+]2(CC=C)C/C(=C\CO)[C@@H]6C[C@@H]12` (some centres undefined) and `O=C(Sc1nnc(-c2ccccc2)o1)N1c2ccccc2Sc2ccccc21` cannot be ordered by IC90: greater than 100 µM for the first, greater than 100 µM for the second.

Going from `Cc1ccc(S(=O)(=O)N(C)c2ccc(OCC(=O)OCc3ccc(C#N)cc3)cc2)cc1` to `COc1ccc(NC(=O)ON=C2c3ccccc3-c3ccccc32)cc1`, the IC90 rises from 13.8 µM to greater than 100 µM.

First: CCCCCC1CC(CC(=O)NC(=S)Nc2ccc([N+](=O)[O-])cc2)C(=O)O1 (centres undefined)
Second: CN1/C(=C\C(=O)COC(=O)c2ccc([N+](=O)[O-])o2)C(C)(C)c2ccccc21
The IC90 of the first is higher: greater than 100 µM for the first, 3.54 µM for the second.

Going from `COc1ccc(-c2oc3cccnc3c2/C=C/c2ccc(OC)c(OC)c2)cc1` to `COc1ccc(-c2csc3ncnc(N4CCN(c5ccccc5OC)CC4)c23)cc1`, the IC90 falls from greater than 100 µM to 26.2 µM.

First: c1ccc(-c2nccc(-c3ccc(-n4cnc5ccccc54)cc3)n2)nc1
Second: c1ccc(-c2ccc(C(c3ccccc3)n3ccnc3)cc2)cc1 (centres undefined)
The IC90 of the first is 1.9-fold lower: 16.5 µM for the first, 31.7 µM for the second.

`CC1CCC(C(C)C)C(OC(=O)Cn2c(-c3ccc(F)cc3)[n+](C)c3ccccc32)C1` (centres undefined) and `CN1OC(COC(=O)c2ccc(Cl)cc2Cl)CC1c1ccccc1` (centres undefined) are within 1.5-fold of each other in IC90: 13 µM for the first, 16.3 µM for the second.

Going from `CCc1c(C)sc(NC(=S)N2CCN(CC)CC2)c1C(=O)OC` to `Cc1cc(C)nc(-n2nc(C)cc2NC(=O)CN2CCC(C)CC2)n1`, the IC90 falls from greater than 100 µM to 16.9 µM.

Going from `CCN(CC)Cc1nc2c(c(=O)[nH]1)C(CC)(CC)Cc1ccccc1-2` to `Cc1c2c(nc3ccccc13)CCC(C)C2` (centres undefined), the IC90 rises from 18.4 µM to 61.8 µM (3.4-fold).

Compared with `C(=N\Nc1nc(-c2ccccc2)cs1)/c1ccncc1`, `C(=N\NC1=Nc2cccc3cccc1c23)/c1cccnc1` is higher in IC90: 66.4 µM for the first, greater than 100 µM for the second.

First: Cc1c(Cl)c([N+](=O)[O-])nn1Cc1ccc(C(=O)N/N=C\c2cccc(Br)c2)o1
Second: Cc1nc([N+](=O)[O-])c(Br)n1CC(=O)c1ccc2ccccc2c1
The IC90 of the first is higher: greater than 100 µM for the first, 11.9 µM for the second.

Going from `O=C(Nc1cc(C(F)(F)F)ccc1Cl)C(Sc1cccc[n+]1[O-])c1ccccc1` (centres undefined) to `Cn1c(NCC(O)c2ccccc2)nc2c1c(=O)n(Cc1ccc(Cl)c(Cl)c1)c(=O)n2C` (centres undefined), the IC90 falls from 47.9 µM to 18.1 µM (2.6-fold).

Compared with `c1ccc2sc(Sc3ncnc4sccc34)nc2c1`, `COc1cccc(/C=N/Nc2ncnc3scc(-c4ccccc4)c23)c1O` is 2.1-fold lower in IC90: 6.95 µM for the first, 3.35 µM for the second.

First: O=[N+]([O-])c1cc(-c2ccc(/C=N\n3cnnc3)o2)cc([N+](=O)[O-])c1
Second: C/C=C(\C)C(=O)Nc1cccc(C2=NOC3(C2)C[C@H](C(N)=O)N(C(=O)c2cc([N+](=O)[O-])cc([N+](=O)[O-])c2)C3)c1 (some centres undefined)
The IC90 of the first is 1.8-fold lower: 1.86 µM for the first, 3.37 µM for the second.

`Cc1ccc2nc(/C(C#N)=C/c3cn[nH]c3-c3ccc(F)cc3)[nH]c2c1` and `N#C/C(=C/c1ccc(Sc2nc3ccccc3[nH]2)o1)c1cccc(Br)c1` cannot be ordered by IC90: greater than 100 µM for the first, greater than 100 µM for the second.

Going from `CC1CCCCC1NC(=O)c1ccc2c(c1)[nH]c(=O)n2C1CCCC1` (centres undefined) to `Cc1nn(-c2ccccc2)c(Cl)c1C(=O)Nc1nnc(C2CCCCC2)s1`, the IC90 rises from 8.42 µM to greater than 50 µM.

Going from `Cc1nn(-c2ccccc2)c(C)c1/C=N/NC(=O)c1cc(-c2cccc3ccccc23)n[nH]1` to `O=c1oc2ccccc2c(O)c1/C=C1\C=Nc2ccccc21`, the IC90 falls from greater than 100 µM to 39.8 µM.

`C=CCS/C(N)=N\N=C\c1c(O)ccc2ccccc12` and `Nc1nc2ccccc2n1/N=C/c1ccc(Br)cc1` cannot be ordered by IC90: 48.6 µM for the first, greater than 25 µM for the second.

First: CCCCCCCCCCCCCCCC[N+](C)(C)CC
Second: CCCCN1C(=N)N([C@@H](CCC)CN2CCC[C@H]2CN2C(N)=NC[C@@H]2Cc2ccccc2)C[C@H]1Cc1ccccc1
The IC90 of the first is 2.4-fold higher: 43 µM for the first, 18.2 µM for the second.

Going from `N#CC(C#N)=c1ccc2c(c1)N1C3=C(CCCC3)CC3CCCCC31N=2` (centres undefined) to `CCOC(=O)COn1c2c(c3c4no[n+]([O-])c4ccc31)CCCC2`, the IC90 falls from 13.1 µM to 5.83 µM (2.2-fold).

Compared with `COC(=O)C1=C(C)NC(=O)/C1=C\c1cc(C)n(-c2cccc(C)c2)c1C`, `CCOC(=O)c1cc(-c2csc(Nc3c(C)cc(C)cc3C)n2)on1` is lower in IC90: greater than 100 µM for the first, 1.76 µM for the second.

First: Cn1cc(C(=O)c2ccc(Cl)cc2)cc1-c1nc2ccccc2n1C
Second: Cc1cc(C)c(C)c(N=Nc2nc3ccccc3n2C)c1C
The IC90 of the first is 3.9-fold higher: 27.1 µM for the first, 6.93 µM for the second.

Going from `CN(C)c1ccc(N=Nc2ccccc2C(=O)OCC(=O)NCC2CCCCC2)cc1` to `Cc1ccc(C(C(=O)NCC2CCCO2)N(Cc2ccccc2)C(=O)c2ccc(-c3ccccc3)[nH]2)o1` (centres undefined), the IC90 rises from 13.1 µM to 35.6 µM (2.7-fold).

Going from `Nc1ccc(-c2nc3nc(N)nc(N)c3nc2-c2ccc(N)cc2)cc1` to `Nc1ccc(Oc2ccc(F)cc2)nc1`, the IC90 rises from 57.5 µM to 90.1 µM (1.6-fold).

First: FC(F)(Cl)c1nnc2ccc(Cl)nn12
Second: COc1ccc(NC(=O)CSc2nnc(-c3ccccn3)n2N)cc1Cl
The IC90 of the first is lower: 0.86 µM for the first, greater than 100 µM for the second.

Going from `Cc1cc(=O)n2[nH]c(Nc3cccc(Cl)c3)nc2n1` to `Cc1ccn2c(-c3csc(NCc4ccccc4)n3)c(C)nc2c1`, the IC90 rises from 33 µM to 52.8 µM (1.6-fold).

Compared with `CCn1c(C)nc2cc(C(=O)OC(C(F)(F)C(F)F)C(F)(F)C(F)F)ccc21`, `CN1C(C(=O)NCc2ccc(OC(F)(F)F)cc2)CC2Cn3c(nc4cc(Cl)c(Cl)cc43)C21` (centres undefined) is 2.1-fold higher in IC90: 26.1 µM for the first, 55.6 µM for the second.

Compared with `CCOC(=O)[C@@H]1[C@H]2COc3cc(OC)ccc3[C@H]2N2C(=O)N(c3ccc(C(F)(F)F)cc3)C(=O)[C@]12C`, `CCOc1cc2c3c(c1)C1(C(=O)N3C(C)(C)CC2C)C(C#N)=C(N)N2C(=C1C#N)Nc1ccccc12` (centres undefined) is higher in IC90: 6.48 µM for the first, greater than 100 µM for the second.

`O=S(=O)(Nc1ccc2[nH]ncc2c1)c1ccccc1Cl` and `Fc1ccc2[nH]c3c(NCc4ccccc4)ncnc3c2c1` are within 1.5-fold of each other in IC90: 19.5 µM for the first, 26.7 µM for the second.

Compared with `Cc1cc(OC(=O)c2cccs2)c2c3c(c(=O)oc2c1)CCCC3`, `COc1ccc(CN2CCCC(C(=O)c3ccc(SC)cc3)C2)cc1Cn1cccn1` (centres undefined) is 7.6-fold higher in IC90: 3.52 µM for the first, 26.6 µM for the second.

First: O=C(CCC(=O)NC1CCCCCCC1)Nc1nnc(C(F)(F)F)s1
Second: CC1CC(C)CN(C(=O)C2CCC(CNc3c(N4CCCCC4)c(=O)c3=O)CC2)C1 (centres undefined)
The IC90 of the first is 5.2-fold lower: 13.9 µM for the first, 71.7 µM for the second.

Compared with `Cc1cccc(/C=C2/S/C(=N/N=C3\CC4CCC3(C)C4(C)C)NC2=O)c1` (centres undefined), `CN1CCN(C2=Cc3ccc(Cl)cc3Sc3ccc(F)cc32)CC1` is lower in IC90: greater than 100 µM for the first, 32.9 µM for the second.

Compared with `Cc1ccc(CN2C3CCCC2CC(NC(=S)NCc2ccccc2)C3)cc1` (centres undefined), `CCN1CSC(=S)N(Cc2ccccc2)C1` is 2.2-fold lower in IC90: 52.4 µM for the first, 24.1 µM for the second.

`Cc1ccccc1CSc1nsc(N)n1` and `O=C(CSc1nc2ncc(Br)cc2[nH]1)Nc1ccc2c(c1)OCO2` are within 1.5-fold of each other in IC90: 19.6 µM for the first, 16.1 µM for the second.

`O=C1c2cccc3c([N+](=O)[O-])ccc(c23)C(=O)N1O` and `Cc1ccc(S(=O)(=O)NNC(=O)c2cc([N+](=O)[O-])c(C)c([N+](=O)[O-])c2)cc1` are within 1.5-fold of each other in IC90: 13.8 µM for the first, 12.5 µM for the second.

Compared with `CC(C)NCC(O)c1ccc(O)c(O)c1` (centres undefined), `CC(C)(C)NC(=O)COC(=O)c1cc(Br)ccc1Cl` is lower in IC90: greater than 100 µM for the first, 65.1 µM for the second.
